Two compounds from patent publication US20040019118A1, “NMDA receptor antagonists and their use in inhibiting abnormal hyperphosphorylation of microtubule associated protein tau” (priority 2002, published 2004) can be followed below.

One test has as its system CaMKII. As to the kind of experiment: CaMKII activity in extracts of treated hippocampal slice cultures. It is filed as cell-based, rat. On the procedure: (§1) Organotypic cultures of rat hippocampal slices were prepared from 20-30 day old Wistar rats and cultured with the interface method as described previously (Stoppini, et al. 1991; Bahr, et al. 1995; Zhongrin, et al. 2000). The rats were anesthetized with ketamine (100 mg/kg body weight) and decapitated and the hippocampi were dissected out and sliced into 400 um coronal sections by a McIllwain tissue chopper. Select slices with uninterrupted bright transparent neuronal layers were plated, 1-3 slices/filter, onto Millicell CM filters (Millipore, Bedford, Mass.). For the first 2 days in vitro (DIV) cultures were maintained in 25% horse serum, 50% Basal Media-Eagle (BEM), 25% Eagle's Balanced Salt Solution (EBSS), 25 mM HEPES, 1 mM glutamine, 28 mM glucose, pH 7.2, at 32° C. in a 5% CO2 humidified atmosphere. The slice cultures were then switched to 25% horse serum, 50% BEM and EBSS modified so that the potassium concentration was 2.66 mM, for another 5 DIV. After 7 DIV, the cultures were maintained in physiological potassium containing 5% horse serum medium at 35° C. for at least 20 days before any treatment was applied. When the slices were treated, the reagents were applied into the culture medium. At different time points, the slices collected with a brush were washed twice in homogenizing buffer (50 mM HEPES, pH 7.0, 10 mM β-merceptoethanol [BME], 1 mM EDTA, 1 mM EGTA, 0.1 mM phenylmethyl sulfonyl fluoride [PMSF], 2.0 mM benzamidine and 2.0 μg/ml each of aprotinin, leupeptin and pepstatin) and homogenized at 4° C. using a Teflon-glass homogenizer. The homogenate was then divided into two parts, one was centrifuged at 16000×g for 15 min and the supernatant was used to assay activities of PP-2A and PP-1. The rest of the homogenate was diluted 1:1 with a phosphatase inhibitor cocktail (20 mM β-glycerophosphate, 2 mM Na3VO4 and 100 mM NaF, pH 7.0) and either used for Western blots or centrifuged at 16000×g for 15 min and the resulting supernatant used to determine the kinase activities.
CaMKII activity was measured in 25 μl of buffer containing 50 mM HEPES, pH 7.5, 10 mM MgCl2, 2.0 mM CaCl2, 10 mM BME, 10 μg/ml calmodulin (CaM), 20 μM syntide (Sigma, St Louis Mo., USA), 0.06 mg/ml slice extract and 200 μM [γ^32P]ATP. The reaction was initiated by adding [γ32p] ATP. After incubation for 10 min at 30° C., 10 μl reaction mixture was removed and spotted on to phosphocellulose membrane. The membrane was then washed five times in 1% phosphoric acid to remove non-protein incorporated ^32P, dried and counted by Cerenkov radiation. The activity of PKA was determined as above except the reaction mixture contained 70 mM NaHPO4, pH 6.8, 14 mM MgCl2, 1.4 mM EDTA, 30 μM malantide (Sigma, St Louis, Mo., USA), 200 μM [γ^32p] ATP and 0.06 mg/ml slice extract.

Another test deals with MAPK. Nature of the test: MAPK activity in extracts of treated hippocampal slice cultures. It is filed as cell-based, rat. On the procedure:
as §1, with “The” for “Organotypic cultures of rat hippocampal slices were prepared from 20-30 day old Wistar rats and cultured with the interface method as described previously (Stoppini, et al. 1991; Bahr, et al. 1995; Zhongrin, et al. 2000). The”, “For the first 2 days in vitro (DIV) cultures were maintained in 25% horse serum, 50% Basal Media-Eagle (BEM), 25% Eagle's Balanced Salt Solution (EBSS), 25 mM HEPES, 1 mM glutamine, 28 mM glucose, pH 7.2, at 32° C. in a 5% CO2 humidified atmosphere. The slice cultures were then switched to 25% horse serum, 50% BEM and EBSS modified so that the potassium concentration was 2.66 mM, for another 5 DIV.” left out
Immobilized protein G (Pierce, Rockford, Ill.), 20 μl, was mixed in 50 mM Tris, pH 7.4, 150 mM NACl, 10 mM NaF, 1.0 mM Na3VO4, 2.0 mM EGTA, 1 mM PMSF, 5 μg/ml leupeptin, 5 μg/ml aprotinin, 2 μg/ml pepstatin, 25 μg/ml phosphoramidon. After incubation at 4° C. overnight, the mixture was centrifuged and the beads were washed three times. The beads were then resuspended in 50 mM Tris, pH 7.4, containing 10 mM MgCl2. MAPK substrate peptide (UBI, Lake Placid, N.Y.) was employed for the MAPK assay. […]

A further test addresses T1, PP-2A (Rattus norvegicus, UniProt P63331).
T1 construct: from tissue; host or cells: organotypic culture of adult rat hippocampal slices; 16,000xg extract
Nature of the test: PP-2A activity in extracts of treated hippocampal slice cultures. In kind it is cell-based. On the procedure: as §1
Activities of PP-2A and PP-1 were assayed towards [^32P] phosphorylase-a as a substrate as described previously (Gong, et al. 1994). The phosphatase activity was assayed in 20 μl of reaction mixture containing 50 mM Tris, pH 7.0, 10 mM BME, 0.1 mM EDTA, 7.5 mM caffeine, 7.5 ng/μl [^32P]phosphorylase-a and 0.06 mg/ml slice culture extract. The reaction was started by adding ^32P-phosphorylase-a. After incubation for 30 min at 30° C., 7 μl of the reaction mixture was spotted on to 31 ETCHR chromatography paper which had been prespotted with 10 μl stop solution (4 mM ATP+20% TCA). Then the ^32p released was separated from the protein-incorporated ^32P by paper chromatography in 5% TCA and 0.2 M NaCl, paper strips dried, cut and counted by Cerenkov radiation. A PP-1 specific inhibitor, inhibitor-1 (Hitken, et al. 1982) was included in the assays for PP-2A activity. PP-1 activity was calculated by subtracting the PP-2A activity from the total phosphorylase-a phosphatase activity (PP-1/PP-2A) assayed in the absence of inhibitor-1.

The test system of another test is tau. Nature of the test: Tau phosphorylation by radioimmuno-dot-blots and 125I-Western blots of slice homogenates. In kind it is cell-based, rat. Particulars: 0.3 mM glutamate, 1 h. The procedure:
as §1, with “The” for “Organotypic cultures of rat hippocampal slices were prepared from 20-30 day old Wistar rats and cultured with the interface method as described previously (Stoppini, et al. 1991; Bahr, et al. 1995; Zhongrin, et al. 2000). The”, “For the first 2 days in vitro (DIV) cultures were maintained in 25% horse serum, 50% Basal Media-Eagle (BEM), 25% Eagle's Balanced Salt Solution (EBSS), 25 mM HEPES, 1 mM glutamine, 28 mM glucose, pH 7.2, at 32° C. in a 5% CO2 humidified atmosphere. The slice cultures were then switched to 25% horse serum, 50% BEM and EBSS modified so that the potassium concentration was 2.66 mM, for another 5 DIV.” left out
Triplicate samples of each homogenate were applied to nitrocellulose membrane (Schleicher and Schuell, Keene, N.H.) and dried at 37° C.
(In western blotting, separated proteins are transferred to a membrane and probed.)

Entries after “also recorded” stand apart in the source; their conditions may differ.

T1 sequence (P63331 whole entry): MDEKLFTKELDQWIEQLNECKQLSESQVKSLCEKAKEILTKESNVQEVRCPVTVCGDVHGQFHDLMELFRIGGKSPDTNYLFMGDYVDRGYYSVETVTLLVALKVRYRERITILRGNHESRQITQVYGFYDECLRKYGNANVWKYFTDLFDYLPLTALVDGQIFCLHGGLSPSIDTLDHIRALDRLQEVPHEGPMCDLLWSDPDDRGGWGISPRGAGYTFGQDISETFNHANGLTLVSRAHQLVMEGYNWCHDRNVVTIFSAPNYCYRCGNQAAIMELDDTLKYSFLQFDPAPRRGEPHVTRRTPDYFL

Consider `C[C@]12N[C@H](Cc3ccccc31)c1ccccc12` [MK801], for which the “CaMKII activity after replacement of glutamate” value with CaMKII (after 0.3 mM glutamate, fresh medium with or without 10 μM Memantine or 15 μM MK801) was “restored the CaMKII activity to normal level”. Further, the “effect on MAP kinase activity” value with MAPK (after 0.3 mM glutamate, 10 μM Memantine or 15 μM MK801) is reported as “no effect”. Also, on PP-2A (after 0.3 mM glutamate 1 h, 10 μM Memantine or 15 μM MK801), the “effect on PP-2A activity” value was “no effect”.

Take `N[C@@H](CCC(=O)O)C(=O)O` [glutamate]: in the test with CaMKII (0.3 mM glutamate, 1 h), the “CaMKII activity as % of control” value is on record as roughly 180% and the “change in CaMKII activity” value is “marked increase”. Also, the “change in MAPK activity” value in the test on MAPK (0.3 mM glutamate, 1 h) is given as “did not induce any detectable change; also recorded: not accompanied by any changes; also recorded: without any effect”. The “change in PP-2A activity” value on PP-2A (0.3 mM glutamate, 1 h) is on record as “did not induce any detectable change; also recorded: not accompanied by any changes; also recorded: without any effect”. Moreover, the “phosphorylation of tau at Ser-262” value with tau is on record as “increased markedly”.
